Data published in patent US11944613B2, “CYP2J2 antagonists in the treatment of pain” (FRAUNHOFER-GESELLSCHAFT ZUR FÖRDERUNG DER ANGEWANDTEN …, priority 2014, dated 2024).
Where a name gives a salt, the structure may show the parent alone.

Experiments:
TRPV1 = TRPV1 (Mus musculus, UniProt Q704Y3); test: Calcium imaging: TRPV1 sensitization, double capsaicin stimulation of DRG neurons; details: inhibitor 10 μM, preincubation 1 h; 9,10-EpOME 1 μM
wild type BL/6N mice = test: Thermal and mechanical thresholds after intraplantar or intrathecal 9,10-EpOME; type: in vivo, mouse
Protocol: FIG. 5: Intraplantar or intrathecal injection of 9,10-EpOME reduces pain thresholds and sensitizes capsaicin induced mechanical thresholds in wild type mice. (a) and (b) C57B1/6N mice received an intraplantar injection of 9,10-EpOME (10 μM) or vehicle (DMSO 0.3% (v/v) in saline). Thermal (a) or mechanical (b) thresholds were monitored for 5 h post injection. Data represents mean ±SEM from eight mice. (c) and (d) Wild type BL/6N mice were injected intrathecally with 9,10-EpOME (10 μM) or vehicle (DMSO 0.3% (v/v) in saline). Thermal (c) or mechanical (d) thresholds were monitored for 2 h (thermal) or 3 h (mechanical) post injection with 15 minute intervals for the first hour and 30 minute intervals for the second hour. Data represents mean ±SEM from eight mice. Die Abbildungen sind nicht mitgeliefert
For the determination of mechanical allodynia or thermal hypersensitivity, mice were kept in test cages on an elevated grid for at least 2 h to allow accommodation. Baseline measurements were performed using a Dynamic Plantar Aesthesiometer or a Hargreaves Apparatus (Ugo Basile, Comerio, VA, Italy) detecting withdrawal latency of the hind paws after mechanical stimulation. For the assessment of the mechanical thresholds, the steel rod was pushed against the mid-plantar hind paw with linear ascending force (0-5 g over 10 seconds, increasing 0.5 g/s) until a fast withdrawal response occurred. Slow movements of the paw were not counted. Paw withdrawal latencies (PWL) were determined in seconds (s) ±0.1 with a cut-off time of 20 s. The non-injected and injected paws were measured alternately in intervals of 5-10 min. For determination of thermal thresholds, mice were kept in test cages on a warmed glass plate (32° C.) for at least 2 h on the first day to allow accommodation. Then, the mid-plantar region of the paws was stimulated with a radiant heat device, consisting of a high intensity projector lamp, until withdrawal occurred. The non-injected and injected paws were measured alternately in intervals of 5-10 min. For all behavioral tests the investigator was blinded for treatment or genotype of the mice.
Treatments: For peripheral injections, 20 μl of 9,10-EpOME [5 μM] (Cayman, Ann Arbor, MI, USA) were injected subcutaneously (s.c.) in the mid-plantar area of the hind paw. […]
The inventors then tested the Galphas-coupled prostanoid receptors for their potential involvement in 9,10-EpOME dependent TRPV1 sensitization in calcium imaging experiments. […] To characterize in vivo effects of 9,10-EpOME, the inventors injected the lipid in hind paws of wild type BL/6N mice and measured the thermal (FIG. 5A) and mechanical thresholds (FIG. 5B) up to 5 h post injection. […] The inventors then injected 9,10-EpOME intrathecally and measured thermal and mechanical thresholds in short time intervals. […]

DRG neurons = test: Calcium imaging: 9,10-EpOME-evoked calcium transients in DRG neurons; type: cell-based, mouse; details: 9,10-EpOME 10 μM, 30 s; antagonist pre-incubated two minutes; AMG 9810 1 μM, HC-030031 20 μM
Protocol: FIG. 2: Direct effects of 9,10-EpOME on DRG-neurons. (a) Application of 9,10-EpOME [10 μM, 30 s] causes calcium transients on DRG neurons which respond to high potassium (50 mM KCl, 30 s). A representative trace is shown. (b) Dose response relationship of 9,10-EpOME dependent calcium increases in DRG neurons related to the number of responding neurons Data represents the mean ±SEM of five measurements per concentration. (c) and (d) Calcium transients caused by 9,10-EpOME [10 μM, 30 s] can be disrupted using calcium-free medium containing EGTA (2 mM) washed in 2 minutes before and after 9,10-EpOME stimulation. Data represents the mean ±SEM of 24 (calcium-free) or 16 (control) neurons. (e) and (f) Calcium transients of 9,10-EpOME [10 μM, 30 s] can be blocked by a selective TRPV1 antagonist (AMG 9810, 1 μM) but not by a selective TRPA1 antagonist (HC-030031, 20 μM) washed in for two minutes prior to the second 9,10-EpOME stimulation. Data represents the mean ±SEM of 16 (control), 31 (AMG 9810) or 18 (HC-030031) neurons; **p<0.01, student's t-test.
Next, the inventors characterized 9,10-EpOME concerning its effects on DRG-neurons in calcium imaging experiments. […]

[1] = test system: paclitaxel-induced CIPNP in mice
Protocol: (a) Levels of 9,10-EpOME shown in % of control determined by LC-MS/MS in sciatic nerves, DRGs and the dorsal horn of the spinal cord eight days after treatment with paclitaxel (6 mg·kg-1 i.p. and 1 mg·kg-1 terfenadine (grey) or vehicle (2% DMSO v/v, black)) Data represents mean ±SEM from the DRGs of five mice per group; *p<0.05, **p<0.01, student's t-test. (b) Remaining concentrations of all measured epoxylipids and dihydro-metabolites (9,10-EpOME, 12,13-EpOME, 9,10-DiHOME, 12,13-DiHOME and 14,15-EET) in sciatic nerve, DRGs, dorsal horn of the spinal cord and plasma after administration of terfenadine (1 mg·kg-1). (c) Mechanical thresholds of mice treated with paclitaxel for eight days (6 mg·kg-1 i.p.) that received an intravenous injection of terfenadine (1 or 2 mg kg-1) or vehicle (DMSO 2.5 or 5% (v/v)). The mechanical thresholds were monitored up to 5 h after injection of terfenadine or vehicle. Data represent mean ±SEM from 8-9 mice per group; #, *p<0.05, two-way ANOVA with Bonferroni post hoc test (*1 mg kg-1, #2 mg kg-1 terfenadine). […] Data represent mean ±SEM from 6-9 mice per group.
Paclitaxel was solved in Cremophor EL/Ethanol 1:1 and diluted in saline. The dose for intraperitoneal injection was set to 6 mg/kg as described previously.
For the determination of mechanical allodynia or thermal hypersensitivity, mice were kept in test cages on an elevated grid for at least 2 h to allow accommodation. Baseline measurements were performed using a Dynamic Plantar Aesthesiometer or a Hargreaves Apparatus (Ugo Basile, Comerio, VA, Italy) detecting withdrawal latency of the hind paws after mechanical stimulation. […] Slow movements of the paw were not counted. Paw withdrawal latencies (PWL) were determined in seconds (s) ±0.1 with a cut-off time of 20 s. The non-injected and injected paws were measured alternately in intervals of 5-10 min. […] The non-injected and injected paws were measured alternately in intervals of 5-10 min. […]

CYP2J6 = target: T1, CYP2J6 (Mus musculus, UniProt O54750); test: LC-MS/MS epoxylipid levels in tissues of paclitaxel treated mice after terfenadine; type: in vivo
T1 construct: the inventors dissected the sciatic nerve, DRGs and the dorsal spinal cord and quantified epoxylipids in these tissues; from tissue; host or cells: sciatic nerve, DRGs, dorsal spinal cord and plasma of paclitaxel-treated C57BL/6N mice
T1 sequence (O54750 1-501): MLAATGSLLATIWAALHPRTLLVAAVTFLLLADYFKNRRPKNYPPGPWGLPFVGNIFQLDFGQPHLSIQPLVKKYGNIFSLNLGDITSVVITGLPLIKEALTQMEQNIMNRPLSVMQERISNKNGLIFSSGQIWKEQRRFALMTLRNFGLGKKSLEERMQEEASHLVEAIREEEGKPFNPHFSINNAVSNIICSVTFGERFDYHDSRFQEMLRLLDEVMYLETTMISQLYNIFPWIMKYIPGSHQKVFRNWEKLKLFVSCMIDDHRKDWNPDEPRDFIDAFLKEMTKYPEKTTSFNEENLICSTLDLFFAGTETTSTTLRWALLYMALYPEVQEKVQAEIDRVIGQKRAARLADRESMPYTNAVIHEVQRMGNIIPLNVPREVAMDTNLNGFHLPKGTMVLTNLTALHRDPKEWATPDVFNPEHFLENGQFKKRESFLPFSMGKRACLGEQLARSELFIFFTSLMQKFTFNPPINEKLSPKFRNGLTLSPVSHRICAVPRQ
Protocol: (b) Remaining concentrations of all measured epoxylipids and dihydro-metabolites (9,10-EpOME, 12,13-EpOME, 9,10-DiHOME, 12,13-DiHOME and 14,15-EET) in sciatic nerve, DRGs, dorsal horn of the spinal cord and plasma after administration of terfenadine (1 mg·kg-1).
Sample extraction and standards: Sample extraction was performed as described previously. Briefly, stock solutions with 2500 ng/ml of all analytes were prepared in methanol. Working standards were obtained by further dilution with a concentration range of 0.1-250 ng/ml for EETs, EpOMEs and DiHOMEs and HODEs Sample extraction was performed with liquid-liquid-extraction. Therefore tissue or cell culture medium was extracted twice with 600 μl ethyl acetate. The combined organic phases were removed at a temperature of 45° C. under a gentle stream of nitrogen. The residues were reconstituted with 50 μl of methanol/water/(50:50, v/v), centrifuged for 2 min at 10,000×g and then transferred to glass vials (Macherey-Nagel, Düren, Germany) prior to injection into the LC-MS/MS system.
Instrumentation for measuring epoxylipids and HODEs: The LC-MS/MS system consisted of an API 4000 triple quadrupole mass spectrometer (Applied Biosystems, Darmstadt, Germany), equipped with a Turbo-V-source operating in negative ESI mode, an Agilent 1100 binary HPLC pump and degasser (Agilent, Waldbronn, Germany) and an HTC Pal autosampler (Chromtech, Idstein, Germany) fitted with a 25 μL LEAP syringe (Axel Semrau GmbH, Sprockhövel, Germany). High purity nitrogen for the mass spectrometer was produced by a NGM 22-LC-MS nitrogen generator (cmc Instruments, Eschborn, Germany). […] Quantification was performed with Analyst Software V 1.4.2 (Applied Biosystems, Darmstadt, Germany) employing the internal standard method (isotope-dilution mass spectrometry). Ratios of analyte peak area and internal standard area (y-axis) were plotted against concentration (x-axis) and calibration curves were calculated by least square regression with 1/concentration2 weighting.

CYP2J2 = target: T2, CYP2J2 (Homo sapiens, UniProt P51589); test: CYP2J2 P450-Glo luciferase assay (FDA Approved Drug Library screen); details: read-out: Average inhibition CYP2J2 (%)
T2 sequence (P51589 1-502): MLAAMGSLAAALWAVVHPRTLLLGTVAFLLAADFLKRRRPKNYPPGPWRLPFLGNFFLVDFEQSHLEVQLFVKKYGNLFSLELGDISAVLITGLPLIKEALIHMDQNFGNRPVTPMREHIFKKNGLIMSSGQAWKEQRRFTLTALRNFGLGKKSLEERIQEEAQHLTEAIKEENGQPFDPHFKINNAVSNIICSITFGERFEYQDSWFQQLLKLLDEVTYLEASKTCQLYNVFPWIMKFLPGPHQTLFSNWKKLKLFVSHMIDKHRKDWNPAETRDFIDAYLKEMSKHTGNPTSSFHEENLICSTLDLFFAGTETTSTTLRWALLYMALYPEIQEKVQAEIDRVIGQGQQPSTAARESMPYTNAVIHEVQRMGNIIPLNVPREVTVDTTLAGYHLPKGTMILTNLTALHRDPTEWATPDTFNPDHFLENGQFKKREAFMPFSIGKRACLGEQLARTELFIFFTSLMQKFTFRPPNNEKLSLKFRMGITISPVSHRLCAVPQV

CYP3A4 [2] = target: T3, CYP3A4 (Homo sapiens, UniProt P08684); test: in vitro
T3 sequence (P08684 whole entry): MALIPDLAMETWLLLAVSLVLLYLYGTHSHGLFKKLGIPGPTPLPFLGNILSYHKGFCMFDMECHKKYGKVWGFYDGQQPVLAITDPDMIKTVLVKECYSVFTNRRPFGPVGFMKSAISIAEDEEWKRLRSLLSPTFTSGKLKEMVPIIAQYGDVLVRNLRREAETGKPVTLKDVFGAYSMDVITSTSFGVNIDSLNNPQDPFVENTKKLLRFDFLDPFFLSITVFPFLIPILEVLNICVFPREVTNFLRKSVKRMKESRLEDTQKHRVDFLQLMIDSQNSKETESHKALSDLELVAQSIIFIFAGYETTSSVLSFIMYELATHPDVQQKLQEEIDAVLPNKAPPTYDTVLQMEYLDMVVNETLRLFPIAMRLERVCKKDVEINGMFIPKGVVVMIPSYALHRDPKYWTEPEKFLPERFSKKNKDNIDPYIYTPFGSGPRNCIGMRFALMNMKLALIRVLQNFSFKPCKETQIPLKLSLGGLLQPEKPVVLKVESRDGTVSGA

CYP3A4 [3] = target: T3, CYP3A4; test: CYP3A4 P450-Glo luciferase assay (unselective control)
[4] = test system: lamina II neurons of spinal cord slices; test: sEPSC recordings in lamina II neurons of spinal cord slices; type: cell-based
Protocol: (d) Frequency of sEPSCs. […] (E) Amplitude of sEPSCs. […] To confirm the effect of TRPV1 sensitization by 9,10-EpOME with electrophysiological means, the inventors measured sEPSCs from lamina II neurons of spinal cord slices using two capsaicin stimulations [1 μM] and incubating the cells prior to the second capsaicin stimulus with 9,10-EpOME [1 μM] (FIG. 3C). […] In combination with capsaicin, however, the sEPSC frequency was strongly potentiated (FIG. 3D). However, no difference in the amplitude of sEPSCs could be observed with either 9,10-EpOME, […] or the combination of both substances (FIG. 3E).

[5] = intraplantar injection in hind paws

Sequence of TRPV1 (Q704Y3 whole entry): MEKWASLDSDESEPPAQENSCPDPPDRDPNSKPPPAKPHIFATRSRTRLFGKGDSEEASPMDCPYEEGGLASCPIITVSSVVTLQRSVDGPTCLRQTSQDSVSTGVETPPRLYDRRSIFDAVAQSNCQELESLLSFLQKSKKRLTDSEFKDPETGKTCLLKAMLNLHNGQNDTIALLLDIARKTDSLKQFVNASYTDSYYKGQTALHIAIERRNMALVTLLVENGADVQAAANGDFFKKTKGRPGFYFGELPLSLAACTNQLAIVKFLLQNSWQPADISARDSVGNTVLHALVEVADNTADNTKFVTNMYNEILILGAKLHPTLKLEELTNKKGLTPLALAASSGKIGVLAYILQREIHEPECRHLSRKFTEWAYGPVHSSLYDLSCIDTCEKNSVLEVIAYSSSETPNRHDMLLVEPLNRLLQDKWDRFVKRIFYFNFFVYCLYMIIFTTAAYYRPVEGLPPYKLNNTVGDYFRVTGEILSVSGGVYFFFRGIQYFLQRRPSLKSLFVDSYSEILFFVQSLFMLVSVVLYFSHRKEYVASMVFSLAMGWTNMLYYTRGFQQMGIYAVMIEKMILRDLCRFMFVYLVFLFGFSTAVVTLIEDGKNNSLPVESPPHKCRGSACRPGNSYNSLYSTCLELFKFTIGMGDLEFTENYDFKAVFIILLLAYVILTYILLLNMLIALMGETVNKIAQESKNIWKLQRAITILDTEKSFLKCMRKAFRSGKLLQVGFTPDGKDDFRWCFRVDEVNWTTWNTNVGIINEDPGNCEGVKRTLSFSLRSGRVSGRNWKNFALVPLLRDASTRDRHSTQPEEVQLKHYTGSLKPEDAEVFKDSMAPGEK

Row | SMILES | inhibition at 10 µM (CYP2J2) [%] | inhibition at 30 min, 10 μM (CYP3A4 [2]) [%] | also measured
1 | CN(C)CCCn1cc(C2=C(c3c[nH]c4ccccc34)C(=O)NC2=O)c2ccccc21 | – | – | effect of kinase inhibitor on 9,10-EpOME-evoked TRPV1 sensitization (TRPV1): did not have any effect
2 | CCCCC/C=C\CC1OC1CCCCCCCC(=O)O (stereo not shown) [9,10-EpOME, 9,10-epoxy-12Z-octadecenoic acid] | – | – | duration of significant reduction of mechanical thresholds (wild type BL/6N mice; [5]): 2 h; duration of significant reduction of thermal thresholds (wild type BL/6N mice; [5]): 1 h; duration of decrease of mechanical thresholds (wild type BL/6N mice; intrathecal injection): up to 1.5 h; thermal thresholds (wild type BL/6N mice; intrathecal injection, 30 minutes after i.th. injection): significant but rather weak reduction
3 | CC(C)(C)c1ccc(/C=C/C(=O)Nc2ccc3c(c2)OCCO3)cc1 [AMG 9810] | – | – | block of the second 9,10-EpOME-evoked calcium transient (DRG neurons): could block
4 | Cl.Cl.O=S(=O)(NCCNC/C=C/c1ccc(Br)cc1)c1cccc2cnccc12 [H89 dihydrochloride] | – | – | effect of kinase inhibitor on 9,10-EpOME-evoked TRPV1 sensitization (TRPV1): significant reduction
5 | CC(C)c1ccc(NC(=O)Cn2cnc3c2c(=O)n(C)c(=O)n3C)cc1 [HC-030031] | – | – | block of the second 9,10-EpOME-evoked calcium transient (DRG neurons): but not the TRPA1 antagonist HC-030031 could block
6 | CC(C)(C)c1ccc(C(O)CCCN2CCC(C(O)(c3ccccc3)c3ccccc3)CC2)cc1 (stereo not shown) [Terfenadine] | – | – | duration of increase in mechanical thresholds ([1]; 1 or 2 mg·kg-1 i.v., eight days after paclitaxel): 2 h; difference between the two doses in mechanical thresholds ([1]; 1 versus 2 mg·kg-1 i.v.): no significant differences; mechanical thresholds of paclitaxel treated mice ([1]; terfenadine 1 or 2 mg·kg-1 i.v., loratadine 1 mg kg-1 i.v., eight days after paclitaxel): significant increase; remaining concentrations of all measured epoxylipids in DRGs, spinal dorsal horn and plasma (CYP2J6; 1 mg·kg-1 i.v.): reduced significantly; 9,10-EpOME concentrations in sciatic nerve, DRGs and dorsal spinal cord (CYP2J6; 1 mg·kg-1 i.v., two hours, eight days after paclitaxel): significant reduction; levels of epoxylipids reduced to (CYP2J6; terfenadine treatment): about 50%
7 | CC(COc1ccccc1)N(CCCl)Cc1ccccc1 (stereo not shown) [c089, Phenoxybenzamine•HCl] | 75 | – | inhibition at 30 min, 10 μM (CYP3A4 [3]): 17.9%
8 | CC(C)/N=c1\cc2n(-c3ccc(Cl)cc3)c3ccccc3nc-2cc1Nc1ccc(Cl)cc1 [c516, Clofazimine] | 79.1 | -82.9 | –
9 | COc1cc(CNC(=O)CCCC/C=C/C(C)C)ccc1O [capsaicin] | – | – | frequency of sEPSCs, substance alone ([4]; 1 mM as printed in legend, baseline 6.9±0.4 Hz, n=5 neurons): 13.7±0.4 Hz; amplitude of sEPSCs ([4]; n=5 neurons/group): no significant effects

Continued, in another order:

Row | inhibition at 10 µM (CYP2J2) [%] | inhibition at 30 min, 10 μM (CYP3A4 [2]) [%] | SMILES | also measured
10 | 84.4 | 12.1 | C[C@]12CC[C@@H]3c4ccc(O)cc4CC[C@H]3[C@@H]1CC[C@@H]2O [c054, Estradiol] | –
11 | 78.2 | -4.3 | CCC(=O)O[C@]1(C(=O)CCl)[C@@H](C)C[C@H]2[C@@H]3CCC4=CC(=O)C=C[C@]4(C)[C@@]3(F)[C@@H](O)C[C@@]21C [c146, Clobetasol Propionate] | –
12 | 78 | -26.2 | CC(C)OC(=O)C(C)(C)Oc1ccc(C(=O)c2ccc(Cl)cc2)cc1 [c246, Fenofibrate] | –
13 | 64 | 5.1 | C#C[C@]1(O)CC[C@H]2[C@@H]3CCC4=CC(=O)CC[C@@H]4[C@H]3CC[C@@]21CC [c314, Levonorgestrel] | –
14 | 76.8 | -18.5 | CC1(C)O[C@@H]2C[C@H]3[C@@H]4CCC5=CC(=O)CC[C@]5(C)[C@@]4(F)[C@@H](O)C[C@]3(C)[C@]2(C(=O)CCl)O1 [c440, Halcinonide] | –
15 | 81.8 | 14 | Cc1[nH]cnc1CN1CCc2c(c3ccccc3n2C)C1=O [c595, Alosetron•HCl] | –
16 | 71.5 | 17.4 | Cc1cccc(CN2CCN(C(c3ccccc3)c3ccc(Cl)cc3)CC2)c1 (stereo not shown) [c608, Meclizine Dihydrochloride] | –
